Values joined by “and” are separate entries in the source; they are usually repeats but may differ in a detail not shown here. Equal entries are not always repeated. “Also recorded” adds a separate entry of the source. Structures can show the parent of a compound that is named as a salt. Where two headings read alike, the source gives them in different places.
Assays:
mouse mMOR = molecular target: T1, mouse mMOR (Mus musculus, UniProt P42866); assay: [35S]GTPγS binding in mMOR-expressing HEK 293 cells (Reith lab); type: biochemical
T1 construct: expressed in transfected cells
T1 sequence (P42866 whole entry): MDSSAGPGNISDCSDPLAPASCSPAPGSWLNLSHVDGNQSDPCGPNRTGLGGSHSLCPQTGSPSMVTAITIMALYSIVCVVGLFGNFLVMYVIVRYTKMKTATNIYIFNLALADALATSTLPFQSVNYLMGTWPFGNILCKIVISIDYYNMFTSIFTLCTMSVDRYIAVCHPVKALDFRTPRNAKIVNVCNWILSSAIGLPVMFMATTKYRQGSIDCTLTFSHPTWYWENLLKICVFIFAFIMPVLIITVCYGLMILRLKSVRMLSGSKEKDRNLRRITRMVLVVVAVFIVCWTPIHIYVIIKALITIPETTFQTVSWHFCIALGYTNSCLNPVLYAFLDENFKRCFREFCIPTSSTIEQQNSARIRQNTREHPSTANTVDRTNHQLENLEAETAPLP

μ-opioid receptor (MOR) [1] = details: cited from earlier work
μ-opioid receptor (MOR) [2] = molecular target: T2, μ-opioid receptor (MOR) (Rattus norvegicus, UniProt P33535); assay: [35S]GTPγS binding in Sprague-Dawley rat thalamic membranes (Reith lab); type: biochemical; set-up: from tissue; host or cells: rat thalamus membranes (Sprague-Dawley; also Fischer F344 in the Janowsky lab); details: for Ki: Antagonist activity Ke (functional Ki), Sprague-Dawley rat thalamic membranes (Reith lab), versus DAMGO (1 µM) as agonist
T2 sequence (P33535 whole entry): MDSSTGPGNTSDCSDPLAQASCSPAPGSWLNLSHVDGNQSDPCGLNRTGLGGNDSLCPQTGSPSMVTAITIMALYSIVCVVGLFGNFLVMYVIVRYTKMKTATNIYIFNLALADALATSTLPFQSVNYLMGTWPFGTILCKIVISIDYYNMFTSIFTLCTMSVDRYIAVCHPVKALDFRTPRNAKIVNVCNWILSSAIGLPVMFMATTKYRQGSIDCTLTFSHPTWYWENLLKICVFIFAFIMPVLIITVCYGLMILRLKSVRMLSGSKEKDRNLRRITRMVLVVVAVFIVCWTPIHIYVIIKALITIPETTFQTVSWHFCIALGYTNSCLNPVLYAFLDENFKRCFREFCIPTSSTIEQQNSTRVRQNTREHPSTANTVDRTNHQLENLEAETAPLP

NMDA receptor = details: cited from earlier work
[3] = Solubility of stocks in water; details: thermodynamic from solid
μ-opioid receptor (MOR) [4] = molecular target: T2, μ-opioid receptor (MOR); assay: [35S]GTPγS binding in Sprague-Dawley / Fischer 344 rat thalamic membranes (Janowsky lab); type: biochemical; set-up: from tissue; host or cells: rat thalamus membranes (Sprague-Dawley; also Fischer F344 in the Janowsky lab)
rat rMOR = molecular target: T3, rat rMOR (Rattus norvegicus, UniProt P33535); assay: [35S]GTPγS binding in rMOR-expressing CHO cells (Janowsky lab); type: biochemical; details: read-out: Agonist activity Emax (%)
T3 construct: expressed in transfected cells
T3 sequence (P33535 whole entry): as above

μ-opioid receptor (MOR) [5] = molecular target: T2, μ-opioid receptor (MOR); assay: [35S]GTPγS binding in Sprague-Dawley rat thalamic membranes (Childers lab); type: biochemical; set-up: from tissue; host or cells: rat thalamus membranes (Sprague-Dawley; also Fischer F344 in the Janowsky lab)
human hMOR = molecular target: T4, human hMOR (Homo sapiens, UniProt P35372); assay: [35S]GTPγS binding in hMOR-expressing CHO cells (Rothman lab); type: biochemical
T4 construct: expressed in transfected cells
T4 sequence (P35372 whole entry): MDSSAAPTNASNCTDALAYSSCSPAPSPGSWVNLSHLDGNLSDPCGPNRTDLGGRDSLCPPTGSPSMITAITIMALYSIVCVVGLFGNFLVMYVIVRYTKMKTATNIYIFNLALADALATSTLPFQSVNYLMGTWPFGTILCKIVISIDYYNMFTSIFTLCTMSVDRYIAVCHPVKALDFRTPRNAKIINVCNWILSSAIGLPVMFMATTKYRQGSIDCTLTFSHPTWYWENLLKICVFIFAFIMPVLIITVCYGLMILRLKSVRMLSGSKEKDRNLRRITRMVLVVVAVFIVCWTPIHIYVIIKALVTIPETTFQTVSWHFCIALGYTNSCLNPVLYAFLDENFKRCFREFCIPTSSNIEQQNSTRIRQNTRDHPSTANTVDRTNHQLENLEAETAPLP

μ-opioid receptor (MOR) [6] = molecular target: T2, μ-opioid receptor (MOR); assay: In vitro autoradiography of agonist-stimulated [35S]GTPγS binding in rat brain sections (Childers lab); type: biochemical; set-up: from tissue; details: noribogaine by itself at concentrations up to 30 µM
μ-opioid receptor (MOR) [7] = molecular target: T2, μ-opioid receptor (MOR); set-up: method as in PMID 9592058; details: rat thalamic membranes, cited from earlier work
[8] = estimated; cited from earlier work
[9] = molecular target: µ-opioid receptor (MOR) of rat brain (rat (endogenous in rat thalamus and brain sections)) (UniProt P33535)
Chain of µ-opioid receptor (MOR) of rat brain (rat (endogenous in rat thalamus and brain sections)) (P33535 whole entry): as the sequence (P33535 whole entry) above

[10] = molecular target: rat µ-opioid receptor (rMOR), recombinant (rat) (UniProt P33535)
Chain of rat µ-opioid receptor (rMOR), recombinant (rat) (P33535 whole entry): as above

[11] = molecular target: µ-opioid receptor (MOR) of rat brain (rat (endogenous in rat thalamus and brain sections)) (UniProt P33535); remark: listed apart in the source
[12] = molecular target: mouse µ-opioid receptor (mMOR) (mouse) (UniProt P42866)
Chain of mouse µ-opioid receptor (mMOR) (mouse) (P42866 whole entry): as the sequence (P42866 whole entry) above

α2 receptor = details: cited from earlier work
[13] = read-out: Agonist activity Emax (%)
[14] = Sprague-Dawley rat thalamic membranes, concentrations up to 100 µM
[15] = concentrations up to 10^-5 M, Janowsky lab procedures or procedures of Pablo and Mash

Molecule: COCC[C@H]1CC2CN3CCc4c([nH]c5ccccc45)[C@](C(=O)OC)(C2)[C@H]13 [18-MC, 18-methoxycoronaridine]
- EC50 (mouse mMOR): 3.42 ± 2.2 µM
- Ki (mouse mMOR): 19.1 ± 2.97 µM
- Emax (mouse mMOR; [13]): 19 ± 4%
- affinity for the μ-opioid receptor (MOR) (μ-opioid receptor (MOR) [1]): low micromolar range
- IC50 (μ-opioid receptor (MOR) [2]): 83.3 ± 19.4 µM
- Ki (μ-opioid receptor (MOR) [2]): 13 µM and 13.2 µM
- stimulation of [35S]GTPγS binding (μ-opioid receptor (MOR) [2]; [14]): no significant stimulation; also recorded: no efficacy
- affinity for the NMDA receptor (NMDA receptor): lacks significant affinity
- solubility [3]: ≥ 1000 µM
- stimulation of [35S]GTPγS binding (μ-opioid receptor (MOR) [4]; [15]): did not stimulate

Molecule: C[C@@H](NC(=O)[C@@H](N)Cc1ccc(O)cc1)C(=O)NCC(=O)N(C)[C@@H](Cc1ccccc1)C(=O)NCCO [DAMGO, [D-Ala^2, N-MePhe^4, Gly-ol]-enkephalin, reference compound]
- Emax (mouse mMOR; read-out: maximal stimulation of [35S]GTPγS binding over basal): 257 ± 12%
- maximal level of stimulation of [35S]GTPγS binding over basal (μ-opioid receptor (MOR) [2]; Sprague-Dawley rat thalamic membranes): 214 ± 6%
- Emax (μ-opioid receptor (MOR) [2]; [13]): 100%
- Emax (rat rMOR): 100%
- Emax (μ-opioid receptor (MOR) [4]; [13]): 100%
- Emax (μ-opioid receptor (MOR) [5]; [13]): 100%

Molecule: CC[C@H]1C[C@@H]2C[C@H]3c4[nH]c5ccc(O)cc5c4CCN(C2)[C@@H]13 [Noribogaine, Noribogaine HCl]
- EC50 (mouse mMOR): 7.42 ± 1.3 µM
- Ki (mouse mMOR): 38.3 ± 1.71 µM
- Emax (mouse mMOR; [13]): 36 ± 6%
- affinity for the μ-opioid receptor (MOR) (μ-opioid receptor (MOR) [1]): low micromolar range
- Ki (human hMOR): 1480 ± 250 nM
- IC50 (μ-opioid receptor (MOR) [2]): 84 ± 27.8 µM
- Ki (μ-opioid receptor (MOR) [2]): 13 µM and 13.3 µM
- stimulation of [35S]GTPγS binding (μ-opioid receptor (MOR) [2]; [14]): no significant stimulation; also recorded: no efficacy
- solubility [3]: ≥ 1000 µM
- effect on [35S]GTPγS binding in any brain region (μ-opioid receptor (MOR) [6]): had no effect
- agonist classification by naloxone-sensitive stimulation of [35S]GTPγS binding (μ-opioid receptor (MOR) [7]): full MOR agonist
- EC50 (μ-opioid receptor (MOR) [7]; read-out: EC50 for stimulating [35S]GTPγS binding): 324 nM
- stimulation of [35S]GTPγS binding (μ-opioid receptor (MOR) [4]; [15]): did not stimulate
- inhibition of the stimulation evoked by 1 µM DAMGO (μ-opioid receptor (MOR) [5]; Sprague-Dawley rat thalamic membranes (Childers lab), noribogaine up to 10 µM): did not inhibit
- effect on [35S]GTPγS binding by itself (μ-opioid receptor (MOR) [5]; concentrations up to 30 µM): did not have any effect
- half-life relative to parent compound [8]: considerably longer than that of the parent compound

Molecule: DAMGO ([D-Ala^2, N-MePhe^4, Gly-ol]-enkephalin) (peptide)
- EC50 of stimulation of [35S]GTPγS binding, Sprague-Dawley and Fischer 344 rat thalamic membranes (Janowsky lab) [9]: 0.122 µM
- EC50 of stimulation of [35S]GTPγS binding, Sprague-Dawley rat thalamic membranes (Childers lab) [9]: 0.21 µM
- EC50 of stimulation of [35S]GTPγS binding, Sprague-Dawley rat thalamic membranes (Reith lab) [9]: 0.238 µM
- EC50 of stimulation of [35S]GTPγS binding, CHO rMOR cell membranes (Janowsky lab) [10]: 0.034 µM
- maximal stimulation of [35S]GTPγS binding over basal, Sprague-Dawley rat thalamic membranes (Reith lab) [11]: 214 % over basal
- maximal stimulation of [35S]GTPγS binding over basal, HEK 293-mMOR cell membranes (Reith lab) [12]: 257 % over basal

Molecule: Ibogaine HCl
- affinity for the μ-opioid receptor (MOR) (μ-opioid receptor (MOR) [1]): low micromolar range
- stimulation of [35S]GTPγS binding (μ-opioid receptor (MOR) [2]): no significant stimulation
- stimulation of [35S]GTPγS binding (μ-opioid receptor (MOR) [7]; 100 µM ibogaine): ~20%
- stimulation of [35S]GTPγS binding (μ-opioid receptor (MOR) [7]; concentrations of 100 µM to 1 mM): 20-30%
- stimulation of [35S]GTPγS binding (μ-opioid receptor (MOR) [4]): did not stimulate
- affinity for the α2 receptor (α2 receptor): no significant affinity

Source: publication PMC3818563, “Effect of Iboga Alkaloids on µ-Opioid Receptor-Coupled G Protein Activation” (PLoS ONE, 2013)
